Reference: patent publication US20250163022A1, “PARP1 INHIBITORS” (Synnovation Therapeutics, Inc., priority 2021, published 2025)

target: T1, PARP1 (Homo sapiens, UniProt P09874); test: In-Cell Western measurement of PARylation in PARP1 WT and knockout cells; format: cell-based; conditions: HeLa cells (wide-type with PARP1 gene); hydrogen peroxide-induced PARylation; compounds 30 min, then 10 mM hydrogen peroxide 15 min; read-out: HeLa_WT_IC50
T1 construct: HeLa cells (wide-type with PARP1 gene) were purchased from ATCC; host or cells: HeLa (wild type)
T1 sequence (P09874 whole entry): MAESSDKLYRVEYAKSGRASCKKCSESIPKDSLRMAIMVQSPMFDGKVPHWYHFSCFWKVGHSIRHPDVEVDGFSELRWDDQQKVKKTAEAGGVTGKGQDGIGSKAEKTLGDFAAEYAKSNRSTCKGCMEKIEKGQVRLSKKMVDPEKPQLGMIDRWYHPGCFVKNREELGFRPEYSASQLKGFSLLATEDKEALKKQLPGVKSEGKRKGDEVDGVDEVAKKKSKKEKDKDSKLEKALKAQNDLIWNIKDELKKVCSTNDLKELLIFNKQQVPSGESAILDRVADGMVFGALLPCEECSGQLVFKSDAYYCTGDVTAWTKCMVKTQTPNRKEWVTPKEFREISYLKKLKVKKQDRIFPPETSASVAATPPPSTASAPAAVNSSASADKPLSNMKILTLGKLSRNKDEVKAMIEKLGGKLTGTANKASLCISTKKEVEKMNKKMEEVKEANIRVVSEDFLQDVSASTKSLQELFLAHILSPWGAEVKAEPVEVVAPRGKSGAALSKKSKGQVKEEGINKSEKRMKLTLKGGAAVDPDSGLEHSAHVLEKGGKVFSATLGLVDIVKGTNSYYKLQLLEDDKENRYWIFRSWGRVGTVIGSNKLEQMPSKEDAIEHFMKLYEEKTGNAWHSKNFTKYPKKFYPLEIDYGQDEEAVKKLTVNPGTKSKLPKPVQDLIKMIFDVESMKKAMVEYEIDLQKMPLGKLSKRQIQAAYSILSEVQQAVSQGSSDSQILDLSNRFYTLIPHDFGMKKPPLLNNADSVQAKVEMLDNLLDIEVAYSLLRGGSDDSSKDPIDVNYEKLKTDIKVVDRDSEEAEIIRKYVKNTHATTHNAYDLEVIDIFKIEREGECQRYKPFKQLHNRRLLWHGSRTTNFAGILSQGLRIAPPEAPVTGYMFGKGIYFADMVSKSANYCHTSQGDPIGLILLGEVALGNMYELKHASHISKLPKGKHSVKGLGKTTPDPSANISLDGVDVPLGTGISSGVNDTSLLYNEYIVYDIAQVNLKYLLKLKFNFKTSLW
From the text: The purpose of this cell-based assay is to measure the potency and selectivity of synthesized PARP inhibitors in suppressing hydrogen peroxide-induced PARylation in cells with and without PARP1 expression. Several cell lines were used in this assay. The human PARP1 knockout HEK-293T cell line (#ab266598) was purchased from Abcam, and its corresponding wide-type control is the human wild-type HEK-293T cell line (#ab255449). The HAP1 isogenic cell lines with and without the PARP1 gene (#HZGHC003943c006) were purchased from Horizon Discovery. HeLa cells (wide-type with PARP1 gene) were purchased from ATCC. Cells were cultured using complete medium containing 10% fetal bovine serum. One day before the assay, cells were seeded in 96-well plates at the density of 20,000 cells per well in 100 uL complete medium. Compounds were dissolved using DMSO and diluted to the working concentrations using complete medium. Cells were pre-treated with compounds for 30 min and then stimulated with 10 mM hydrogen peroxide for 15 min. After stimulation, cells were immediately fixed using ice-cold methanol for 20 min. After fixation, cells were washed using 1×PBST buffer for 3 times, 5 min each time, to eliminate residual methanol. Cells were blocked for 2 h at room temperature in blocking buffer (LI-COR Biosciences, #927-70001). Primary antibody was diluted in diluent buffer (LI-COR Biosciences, #927-75001, 1:200) at 50 uL per well. Cells were incubated with the primary antibody at 4° C. for 18 h. The wells were then washed using 1×PBST for 3 times, 5 min each time. IRDye® 680RD Goat anti-Mouse IgG (H+L) secondary antibody was diluted at 1/2000 using the diluent buffer and added at 100 μL per well. Secondary antibody incubation was for 1 h at room temperature. Cells were then washed using 1×PBST for 3 times, 5 min each time. The signal was detected and analyzed using LI-COR Odyssey DLx Imaging system. Data were collected and further processed using GraphPad Prism for IC50 estimation.

IC50, ≤ 0.01 µM:
CCn1c(=O)[nH]c2cc(CN3CCN(c4ccc(C(=O)NC)nc4F)CC3)ccc2c1=O [Compound I-29, 5-(4-((3-Ethyl-2,4-dioxo-1,2,3,4-tetrahydroquinazolin-7-yl)methyl)piperazin-1-yl)-6-fluoro-N-methylpicolinamide]
CNC(=O)c1ccc(N2CCN(Cc3cc4[nH]c(=O)c5c(c4cn3)CCC5)CC2)c(C)n1 [Compound I-30, N,6-dimethyl-5-(4-((6-oxo-6,7,8,9-tetrahydro-5H-cyclopenta[c][1,6]naphthyridin-3-yl)methyl)piperazin-1-yl)picolinamide]
CCn1c(=O)[nH]c2cc(CN3CCN(c4ccc(C(=O)NC)nc4C(F)(F)F)CC3)ccc2c1=O [Compound I-31, 5-(4-((3-Ethyl-2,4-dioxo-1,2,3,4-tetrahydroquinazolin-7-yl)methyl)piperazin-1-yl)-N-methyl-6-(trifluoromethyl)picolinamide]
CCn1c(=O)[nH]c2cc(CN3CCN(c4ccc(C(=O)NC)nc4C)CC3)cc(Cl)c2c1=O [Compound I-32, 5-(4-((5-chloro-3-ethyl-2,4-dioxo-1,2,3,4-tetrahydroquinazolin-7-yl)methyl)piperazin-1-yl)-N,6-dimethylpicolinamide]
CCn1c(=O)[nH]c2cc(CN3CCN(c4ccc(C(=O)NC)nc4F)CC3)cc(F)c2c1=O [Compound I-33, 5-(4-((3-Ethyl-5-fluoro-2,4-dioxo-1,2,3,4-tetrahydroquinazolin-7-yl)methyl)piperazin-1-yl)-6-fluoro-N-methylpicolinamide]
CCN1C(=O)Nc2c(F)c(CN3CCN(c4ccc(C(=O)NC)nc4C)CC3)cc3c2c1nn3C [Compound I-34, 5-(4-((3-Ethyl-6-fluoro-1-methyl-4-oxo-1,3,4,5-tetrahydropyrazolo[3,4,5-de]quinazolin-7-yl)methyl)piperazin-1-yl)-N,6-dimethylpicolinamide]
CCN1C(=O)Nc2c(F)c(CN3CCN(c4ccc(C(=O)NC)nc4C)CC3)cc3ncnc1c23 [Compound I-35, 5-(4-((3-ethyl-9-fluoro-2-oxo-2,3-dihydro-1H-pyrimido[4,5,6-de]quinazolin-8-yl)methyl)piperazin-1-yl)-N,6-dimethylpicolinamide]
[2H]C([2H])([2H])NC(=O)c1ccc(N2CCN(Cc3cc(F)c4c(=O)n(CC)c(=O)[nH]c4c3)CC2)c(C([2H])([2H])[2H])n1 [Compound I-36, 5-(4-((3-Ethyl-5-fluoro-2,4-dioxo-1,2,3,4-tetrahydroquinazolin-7-yl)methyl)piperazin-1-yl)-N,6-bis(methyl-d3)picolinamide]
CCn1c(=O)[nH]c2cc(CN3CCN(c4ccc(C(=O)NC)nc4C)CC3)cc(C(F)F)c2c1=O [Compound I-37, 5-(4-((5-(Difluoromethyl)-3-ethyl-2,4-dioxo-1,2,3,4-tetrahydroquinazolin-7-yl)methyl)piperazin-1-yl)-N,6-dimethylpicolinamide]
CNC(=O)c1ccc(N2CCN(Cc3cc(OC)c4c(=O)n(C)c(=O)[nH]c4c3F)CC2)c(C)n1 [Compound I-38, 5-(4-((8-Fluoro-5-methoxy-3-methyl-2,4-dioxo-1,2,3,4-tetrahydroquinazolin-7-yl)methyl)piperazin-1-yl)-N,6-dimethylpicolinamide]
CCn1c(=O)[nH]c2c(F)c(CN3CCN(c4ccc(C(=O)NC)nc4C)CC3)cc(Cl)c2c1=O [Compound I-39, 5-(4-((5-chloro-3-ethyl-8-fluoro-2,4-dioxo-1,2,3,4-tetrahydroquinazolin-7-yl)methyl)piperazin-1-yl)-N,6-dimethylpicolinamide]
CCn1c(=O)[nH]c2c(F)c(CN3CCN(c4ccc(C(=O)NC)nc4C)CC3)cc(C3CC3)c2c1=O [Compound I-40, 5-(4-((5-Cyclopropyl-3-ethyl-8-fluoro-2,4-dioxo-1,2,3,4-tetrahydroquinazolin-7-yl)methyl)piperazin-1-yl)-N,6-dimethylpicolinamide]
CCn1c(=O)[nH]c2c(F)c(CN3CCN(c4ccc(C(=O)NC)nc4C)CC3)cc(CO)c2c1=O [Compound I-41, 5-(4-((3-Ethyl-8-fluoro-5-(hydroxymethyl)-2,4-dioxo-1,2,3,4-tetrahydroquinazolin-7-yl)methyl)piperazin-1-yl)-N,6-dimethylpicolinamide]
CCn1c(=O)[nH]c2c(F)c(CN3CCN(c4ccc(C(=O)NC)nc4C)CC3)cc(CC#N)c2c1=O [Compound I-42, 5-(4-((5-(Cyanomethyl)-3-ethyl-8-fluoro-2,4-dioxo-1,2,3,4-tetrahydroquinazolin-7-yl)methyl)piperazin-1-yl)-N,6-dimethylpicolinamide]
CCNC(=O)c1ccc(N2CCN(Cc3cc(Cl)c4c(=O)n(C)c(=O)[nH]c4c3)CC2)c(C)n1 [Compound I-43, 5-(4-((5-Chloro-3-methyl-2,4-dioxo-1,2,3,4-tetrahydroquinazolin-7-yl)methyl)piperazin-1-yl)-N-ethyl-6-methylpicolinamide]
[2H]C([2H])([2H])NC(=O)c1ccc(N2CCN(Cc3ccc4c(=O)n(CC)c(=O)[nH]c4c3)CC2)c(C([2H])([2H])[2H])n1 [Compound I-44, 5-(4-((3-ethyl-2,4-dioxo-1,2,3,4-tetrahydroquinazolin-7-yl)methyl)piperazin-1-yl)-N,6-bis(methyl-d3)picolinamide]
CCN1C(=O)Nc2cc(CN3CCN(c4ccc(C(=O)NC)nc4C)CC3)cc3cnnc1c23 [Compound I-45, 5-[4-[(12-Ethyl-11-oxo-2,3,10,12-tetrazatricyclo[7.3.1.05,13]trideca-1,3,5,7,9 (13)-pentaen-7-yl)methyl]piperazin-1-yl]-N,6-dimethyl-pyridine-2-carboxamide]
CCn1c(=O)[nH]c2c(F)c(CN3CCN(c4ccc(C(=O)NC)nc4C)CC3)cc(COC)c2c1=O [Compound I-46, 5-(4-((3-Ethyl-8-fluoro-5-(methoxymethyl)-2,4-dioxo-1,2,3,4-tetrahydroquinazolin-7-yl)methyl)piperazin-1-yl)-N,6-dimethylpicolinamide]
CNC(=O)c1ccc(N2CCN(Cc3cc(C(F)F)c4c(=O)n(C)c(=O)[nH]c4c3)CC2)c(C)n1 [Compound I-47, 5-(4-((5-(Difluoromethyl)-3-methyl-2,4-dioxo-1,2,3,4-tetrahydroquinazolin-7-yl)methyl)piperazin-1-yl)-N,6-dimethylpicolinamide]
CCNC(=O)c1ccc(N2CCN(Cc3cc(Cl)c4c(=O)n(CC)c(=O)[nH]c4c3)CC2)c(C)n1 [Compound I-48, 5-(4-((5-chloro-3-ethyl-2,4-dioxo-1,2,3,4-tetrahydroquinazolin-7-yl)methyl)piperazin-1-yl)-N-ethyl-6-methylpicolinamide]
CNC(=O)c1ccc(N2CCN(Cc3cc(C4CC4)c4c(=O)n(C)c(=O)[nH]c4c3F)CC2)c(C)n1 [Compound I-49, 5-(4-((5-Cyclopropyl-8-fluoro-3-methyl-2,4-dioxo-1,2,3,4-tetrahydroquinazolin-7-yl)methyl)piperazin-1-yl)-N,6-dimethylpicolinamide]
